{"source": "PubChem BioAssay AID2060625", "about": "(Molecular Pharmacology Branch, DTP, NCI, 2025)", "system": "186277-243-T-J2-PDC spheroids with HUVEC/MSC, viability", "assay": "Anticancer human tumor 186277-243-T-J2-PDC patient-derived colon adenocarcinoma cell line growth inhibition [CLK]", "details": "for pIC50: curve of first compound; for viability, T/C: stronger effect = lower value", "outline": "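Multi-cell-type spheroids combined patient-derived tumor cells with HUVEC endothelial cells and human mesenchymal stem cells. Paired agents were dosed in half-log steps down from about clinical Cmax, or from 10 microM where Cmax was unknown.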", "note": "pIC50: −log10 of the molar value."}
{"compound": "CC(Nc1ccc2c(c1)OCCn1cc(N3C(=O)OCC3C(F)F)nc1-2)C(N)=O", "note": "(centres undefined) + CNC(=O)c1ccc(Nc2nc(OC3CCCC3)c3c(-c4ccc5nc(C)oc5c4)c[nH]c3n2)c(OC)c1;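 note: compound exposure lasted seven days before readout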;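 for viability, T/C: 100% = DMSO vehicle control wells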", "values": [{"measurement": "pIC50", "setting": "second compound 0.0316 µM", "result": 5.75}, {"measurement": "pIC50", "setting": "second compound 0.1 µM", "result": 7.38}, {"measurement": "pIC50", "setting": "second compound 0.316 µM", "result": "> 7.50"}, {"measurement": "pIC50", "setting": "second compound 1 µM", "result": "> 7.50"}, {"measurement": "pIC50", "setting": "second compound 3.16 µM", "result": "> 7.50"}, {"measurement": "pIC50", "setting": "second compound 10 µM", "result": "> 7.50"}, {"measurement": "viability, T/C", "setting": "second compound 0.0316 µM, first compound 0.0316 µM", "result": 86.1, "unit": "%"}, {"measurement": "viability, T/C", "setting": "second compound 0.0316 µM, first compound 0.1 µM", "result": 93.9, "unit": "%"}, {"measurement": "viability, T/C", "setting": "second compound 0.0316 µM, first compound 0.316 µM", "result": 63.2, "unit": "%"}, {"measurement": "viability, T/C", "setting": "second compound 0.0316 µM, first compound 1 µM", "result": 57.6, "unit": "%"}, {"measurement": "viability, T/C", "setting": "second compound 0.0316 µM, first compound 3.16 µM", "result": 46.6, "unit": "%"}, {"measurement": "viability, T/C", "setting": "second compound 0.0316 µM, first compound 10 µM", "result": 30.5, "unit": "%"}, {"measurement": "viability, T/C", "setting": "second compound 0.1 µM, first compound 0.0316 µM", "result": 53.9, "unit": "%"}, {"measurement": "viability, T/C", "setting": "second compound 0.1 µM, first compound 0.1 µM", "result": 39.9, "unit": "%"}, {"measurement": "viability, T/C", "setting": "second compound 0.1 µM, first compound 0.316 µM", "result": 35.2, "unit": "%"}, {"measurement": "viability, T/C", "setting": "second compound 0.1 µM, first compound 1 µM", "result": 29.4, "unit": "%"}, {"measurement": "viability, T/C", "setting": "second compound 0.1 µM, first compound 3.16 µM", "result": 20.1, "unit": "%"}, {"measurement": "viability, T/C", "setting": "second compound 0.1 µM, first compound 10 µM", "result": 14.7, "unit": "%"}, {"measurement": "viability, T/C", "setting": "second compound 0.316 µM, first compound 0.0316 µM", "result": 30.4, "unit": "%"}, {"measurement": "viability, T/C", "setting": "second compound 0.316 µM, first compound 0.1 µM", "result": 24.3, "unit": "%"}, {"measurement": "viability, T/C", "setting": "second compound 0.316 µM, first compound 0.316 µM", "result": 16.9, "unit": "%"}, {"measurement": "viability, T/C", "setting": "second compound 0.316 µM, first compound 1 µM", "result": 11.4, "unit": "%"}, {"measurement": "viability, T/C", "setting": "second compound 0.316 µM, first compound 3.16 µM", "result": 10.2, "unit": "%"}, {"measurement": "viability, T/C", "setting": "second compound 0.316 µM, first compound 10 µM", "result": 7.7, "unit": "%"}, {"measurement": "viability, T/C", "setting": "second compound 1 µM, first compound 0.0316 µM", "result": 20.6, "unit": "%"}, {"measurement": "viability, T/C", "setting": "second compound 1 µM, first compound 0.1 µM", "result": 16.4, "unit": "%"}, {"measurement": "viability, T/C", "setting": "second compound 1 µM, first compound 0.316 µM", "result": 12.4, "unit": "%"}, {"measurement": "viability, T/C", "setting": "second compound 1 µM, first compound 1 µM", "result": 11.2, "unit": "%"}, {"measurement": "viability, T/C", "setting": "second compound 1 µM, first compound 3.16 µM", "result": 7.78, "unit": "%"}, {"measurement": "viability, T/C", "setting": "second compound 1 µM, first compound 10 µM", "result": 6.87, "unit": "%"}, {"measurement": "viability, T/C", "setting": "second compound 3.16 µM, first compound 0.0316 µM", "result": 20.8, "unit": "%"}, {"measurement": "viability, T/C", "setting": "second compound 3.16 µM, first compound 0.1 µM", "result": 15, "unit": "%"}, {"measurement": "viability, T/C", "setting": "second compound 3.16 µM, first compound 0.316 µM", "result": 11.1, "unit": "%"}, {"measurement": "viability, T/C", "setting": "second compound 3.16 µM, first compound 1 µM", "result": 10.6, "unit": "%"}, {"measurement": "viability, T/C", "setting": "second compound 3.16 µM, first compound 3.16 µM", "result": 7.84, "unit": "%"}, {"measurement": "viability, T/C", "setting": "second compound 3.16 µM, first compound 10 µM", "result": 5.24, "unit": "%"}, {"measurement": "viability, T/C", "setting": "second compound 10 µM, first compound 0.0316 µM", "result": 24.5, "unit": "%"}, {"measurement": "viability, T/C", "setting": "second compound 10 µM, first compound 0.1 µM", "result": 19.6, "unit": "%"}, {"measurement": "viability, T/C", "setting": "second compound 10 µM, first compound 0.316 µM", "result": 10.9, "unit": "%"}, {"measurement": "viability, T/C", "setting": "second compound 10 µM, first compound 1 µM", "result": 9.69, "unit": "%"}, {"measurement": "viability, T/C", "setting": "second compound 10 µM, first compound 3.16 µM", "result": 6.97, "unit": "%"}, {"measurement": "viability, T/C", "setting": "second compound 10 µM, first compound 10 µM", "result": 4.12, "unit": "%"}]}
{"compound": "C=CC(=O)Nc1cc(Nc2nccc(-c3cn(C)c4ccccc34)n2)c(OC)cc1N(C)CCN(C)C", "note": "+ CNC(=O)c1ccc(Nc2nc(OC3CCCC3)c3c(-c4ccc5nc(C)oc5c4)c[nH]c3n2)c(OC)c1", "values": [{"measurement": "pIC50", "setting": "second compound 0.0316 µM", "result": "< 6.52"}, {"measurement": "pIC50", "setting": "second compound 0.1 µM", "result": 6.69}, {"measurement": "pIC50", "setting": "second compound 0.316 µM", "result": "> 9.02"}, {"measurement": "pIC50", "setting": "second compound 1 µM", "result": "> 9.02"}, {"measurement": "pIC50", "setting": "second compound 3.16 µM", "result": "> 9.02"}, {"measurement": "pIC50", "setting": "second compound 10 µM", "result": "> 9.02"}, {"measurement": "viability, T/C", "setting": "second compound 0.0316 µM, first compound 0.000949 µM", "result": 118, "unit": "%"}, {"measurement": "viability, T/C", "setting": "second compound 0.0316 µM, first compound 0.003 µM", "result": 109, "unit": "%"}, {"measurement": "viability, T/C", "setting": "second compound 0.0316 µM, first compound 0.00949 µM", "result": 101, "unit": "%"}, {"measurement": "viability, T/C", "setting": "second compound 0.0316 µM, first compound 0.03 µM", "result": 93.7, "unit": "%"}, {"measurement": "viability, T/C", "setting": "second compound 0.0316 µM, first compound 0.0949 µM", "result": 97.9, "unit": "%"}, {"measurement": "viability, T/C", "setting": "second compound 0.0316 µM, first compound 0.3 µM", "result": 101, "unit": "%"}, {"measurement": "viability, T/C", "setting": "second compound 0.1 µM, first compound 0.000949 µM", "result": 84.3, "unit": "%"}, {"measurement": "viability, T/C", "setting": "second compound 0.1 µM, first compound 0.003 µM", "result": 76.1, "unit": "%"}, {"measurement": "viability, T/C", "setting": "second compound 0.1 µM, first compound 0.00949 µM", "result": 73.1, "unit": "%"}, {"measurement": "viability, T/C", "setting": "second compound 0.1 µM, first compound 0.03 µM", "result": 68, "unit": "%"}, {"measurement": "viability, T/C", "setting": "second compound 0.1 µM, first compound 0.0949 µM", "result": 57.4, "unit": "%"}, {"measurement": "viability, T/C", "setting": "second compound 0.1 µM, first compound 0.3 µM", "result": 46, "unit": "%"}, {"measurement": "viability, T/C", "setting": "second compound 0.316 µM, first compound 0.000949 µM", "result": 48.7, "unit": "%"}, {"measurement": "viability, T/C", "setting": "second compound 0.316 µM, first compound 0.003 µM", "result": 46.7, "unit": "%"}, {"measurement": "viability, T/C", "setting": "second compound 0.316 µM, first compound 0.00949 µM", "result": 45, "unit": "%"}, {"measurement": "viability, T/C", "setting": "second compound 0.316 µM, first compound 0.03 µM", "result": 43.4, "unit": "%"}, {"measurement": "viability, T/C", "setting": "second compound 0.316 µM, first compound 0.0949 µM", "result": 39.4, "unit": "%"}, {"measurement": "viability, T/C", "setting": "second compound 0.316 µM, first compound 0.3 µM", "result": 24.1, "unit": "%"}, {"measurement": "viability, T/C", "setting": "second compound 1 µM, first compound 0.000949 µM", "result": 37.4, "unit": "%"}, {"measurement": "viability, T/C", "setting": "second compound 1 µM, first compound 0.003 µM", "result": 36.5, "unit": "%"}, {"measurement": "viability, T/C", "setting": "second compound 1 µM, first compound 0.00949 µM", "result": 32.7, "unit": "%"}, {"measurement": "viability, T/C", "setting": "second compound 1 µM, first compound 0.03 µM", "result": 30.3, "unit": "%"}, {"measurement": "viability, T/C", "setting": "second compound 1 µM, first compound 0.0949 µM", "result": 27, "unit": "%"}, {"measurement": "viability, T/C", "setting": "second compound 1 µM, first compound 0.3 µM", "result": 18.1, "unit": "%"}, {"measurement": "viability, T/C", "setting": "second compound 3.16 µM, first compound 0.000949 µM", "result": 36.3, "unit": "%"}, {"measurement": "viability, T/C", "setting": "second compound 3.16 µM, first compound 0.003 µM", "result": 33.5, "unit": "%"}, {"measurement": "viability, T/C", "setting": "second compound 3.16 µM, first compound 0.00949 µM", "result": 32.3, "unit": "%"}, {"measurement": "viability, T/C", "setting": "second compound 3.16 µM, first compound 0.03 µM", "result": 28.6, "unit": "%"}, {"measurement": "viability, T/C", "setting": "second compound 3.16 µM, first compound 0.0949 µM", "result": 24.8, "unit": "%"}, {"measurement": "viability, T/C", "setting": "second compound 3.16 µM, first compound 0.3 µM", "result": 17.4, "unit": "%"}, {"measurement": "viability, T/C", "setting": "second compound 10 µM, first compound 0.000949 µM", "result": 37.2, "unit": "%"}, {"measurement": "viability, T/C", "setting": "second compound 10 µM, first compound 0.003 µM", "result": 35.6, "unit": "%"}, {"measurement": "viability, T/C", "setting": "second compound 10 µM, first compound 0.00949 µM", "result": 33, "unit": "%"}, {"measurement": "viability, T/C", "setting": "second compound 10 µM, first compound 0.03 µM", "result": 32.4, "unit": "%"}, {"measurement": "viability, T/C", "setting": "second compound 10 µM, first compound 0.0949 µM", "result": 29.3, "unit": "%"}, {"measurement": "viability, T/C", "setting": "second compound 10 µM, first compound 0.3 µM", "result": 21.1, "unit": "%"}]}
